Assay results: article PMC5748751, “Study of Structure and Permeability Relationship of Flavonoids in Caco-2 Cells” (Nutrients, 2017)
Like-named read-outs stand apart in the source and are kept apart here. Marks after values point to notes of the source that are not given here.

Columns and labels:
[1] = Stability of flavonoids in D-Hank's buffer relative to methanol; assay type: physicochemical; conditions: 20 μM flavonoid, HPLC peak area in D-Hank's / peak area in methanol × 100%
Description: The relative stability was expressed as the relative appearance of flavonoids in different solvents. Each flavonoid (20 μM) was dissolved in two different solvents, D-Hank’s and methanol. […] Relative concentration in D-Hank’s (%) = Peak area in D-Hank’s/Peak area in methanol × 100%(3)

[2] = Permeability (bidirectional transport) of flavonoids in Caco-2 cell monolayers; assay type: in vitro ADME; conditions: human; for Papp A→B at 60 min, 40 μM: Caco-2, apical to basolateral; for Papp A→B at 60 min, 40 μM / Papp B→A at 60 min, 40 μM: incubation 60 min, 37 °C, D-Hank's pH 7.4, mean ± SD, n = 3–6; for Papp B→A at 60 min, 40 μM: Caco-2, basolateral to apical; for efflux ratio at 60 min, 40 μM: pH 7.4, Caco-2 monolayer, read-out: Ratiop (ratio of Papp B to A to Papp A to B); for Papp at 1 h, 40 μM: Caco-2, pH 7.4, as stated in text, direction not specified (bilateral), Caco-2 monolayer
Description: Caco-2 cells were cultured in MEM supplemented with 10% FBS, 1% NEAA, penicillin (100 U/mL) and streptomycin (100 μg/mL) in an atmosphere of 5% CO2 and 90% relative humidity at 37 °C. All cells used in this study were between passages 35 and 45 [16].
Caco-2 cells were seeded at a density of about 8 × 10^4 cells/cm^2 on a 12 wells Millicell hanging insert and left to grow for 19–21 days to reach confluence. Culture medium was replaced every other day for 14 days and daily thereafter. The integrity and transport ability of the Caco-2 cells monolayer were examined by measuring the trans-epithelial electrical resistance (TEER) with a Millicell voltammeter (Millicell ERS-2, Merck Millipore, Billerica, MA, USA) and running standard assays using Lucifer yellow CH as paracellular flux marker. […] Differentiation of Caco-2 cells was checked after 4 and 12 days by determining the activity of alkaline phosphatase with an assay kit (Nanjing Jiancheng Bioengineering Institute, Nanjing, China) and after 21 days transmission electron microscopy was performed on Caco-2 monolayer to evaluate differentiation.
The Caco-2 cell monolayer was washed with D-Hank’s buffer (pH 7.4). Then, the flavonoid (40 μM) was added to either the apical (AP, 0.4 mL) or basolateral (BL, 1.95 mL) side, while the receiving chamber contained the corresponding volume of D-Hank’s buffer and incubated for 1 h at 37 °C. Solutions from both AP and BL sides of Caco-2 cell monolayer were collected and immediately frozen, lyophilized and preserved at −80 °C for high performance liquid chromatography (HPLC) analysis. Papp was calculated from Equation (1), where ΔQ/Δt is the rate of the flavonoid on the accepting chamber (μM/s), A is the surface area of the hanging insert (cm^2) and C0 is the initial concentration of tested flavonoid in donating chamber (μM/mL).(1) Papp=ΔQ/Δt/AC0

[3] = Cell viability (MTT) assay of flavonoids in Caco-2 cells; assay type: cell-based; conditions: human
Description: The cytotoxicity of flavonoids and colchicine was evaluated by MTT assay. The cells were grown in 96-well plates at a density of 1 × 10^4 cells/well. After incubation with 40 μM flavonoid for 24 h, the cells were further incubated with an MTT solution (0.5 mg/mL) for 4 h at 37 °C. Finally, after removal of the supernatant, 150 μL dimethyl sulphoxide was added to each well to dissolve crystallized MTT. Absorbance was read at 570 nm with a multiskan spectrum microplate reader (Thermo Labsystems, Waltham, MA, USA). The percentage cell viability relative to that of the control cells was used as the cytotoxicity measure.

Caco-2 cell monolayer = test: Cellular accumulation (CA) of flavonoids in Caco-2 cell monolayer; conditions: for Ratioc (ratio of CA B to A to CA A to B): Caco-2 monolayer; for CA A to B: accumulated in cell monolayer after transport apical to basolateral; for CA A to B / CA B to A: 40 μM, 1 h, normalized to cellular protein, mean ± SD, n = 3; for CA B to A: accumulated in cell monolayer after transport basolateral to apical; for CA: both sides (CA A to B and CA B to A)
Description: After the collection of samples from both AP and BL sides, the hanging insert was rinsed twice with ice-cold D-Hank’s buffer to stop further transport, and lysed with 0.1% Triton X-100 in D-Hank’s buffer then placed in an ultrasonic bath for 15 min. Cell lysates were collected and centrifuged at 7000× g for 10 min. Supernatants were analyzed by BCA kit (Dingguochangsheng Biotechnology, Beijing, China) for protein content. After protein content assay, supernatants were immediately frozen, lyophilized and preserved at −80 °C. The flavonoid concentration in lysis solution was determined by HPLC and normalized with cellular protein content.
To determine both the permeability and CA of flavonoids in Caco-2 cells, the lyophilized samples were dissolved in running 120 to 200 μL methanol, and centrifuged at 7000× g for 5 min. Aliquot of 20 μL of the supernatant solution was used for assay using Waters e2695 HPLC system (Milford, MA, USA) fitted with an Amethyst C18-H column (250 mm × 4.6 mm i.d., 5 μm; Sepax, Newark, DE, USA). The mobile phase consisted of A (0.01 M phosphoric acid (H3PO4))/B (acetonitrile) with 1.0 mL/min flow rate. […] Peak area measurement was used to obtain standard calibration curves to determine concentration of each flavonoid.

[4] = Recovery (mass balance) of flavonoids during Caco-2 transport assay; assay type: in vitro ADME; conditions: human, Caco-2, mass balance, both sides of insert plus cells
Description: The recovery of the flavonoid glycosides during the transport assays was determined by mass balance and was measured as total amount of the flavonoids on both sides of the insert and in the Caco-2 cells.

[5] = transport apical to basolateral, read-out: Recovery (A to B, %)
[6] = transport basolateral to apical, read-out: Recovery (B to A, %)

Row | Relative concentration of flavonoids, D-Hank's/methanol (%) [1] [%] | Papp A→B at 60 min, 40 μM [2] [×10⁻⁶ cm/s] | Papp B→A at 60 min, 40 μM [2] [×10⁻⁶ cm/s] | efflux ratio at 60 min, 40 μM [2] | Ratioc (ratio of CA B to A to CA A to B) (Caco-2 cell monolayer) | CA A to B (Caco-2 cell monolayer) | CA B to A (Caco-2 cell monolayer) | recovery [4, 5] [%] | recovery [4, 6] [%] | CA (Caco-2 cell monolayer) [µmol/g] | Structure (SMILES) | viability at 24 h, 40 μM [3] [%] | Papp at 1 h, 40 μM [2] [×10⁻⁶ cm/s]
1 | 60.10 | 22.4 ± 1.37 | 21.7 ± 1.21 | 0.97 | 1.65 | 1.932 ± 0.051 µmol/g | 3.183 ± 0.504 ^a μmol/g | – | – | – | O=c1cc(-c2ccccc2)oc2ccccc12 [Compound 1, Flavone] | 96.3 ± 9.79 | –
2 | 12.09 | 21.9 ± 0.585 | 23.9 ± 0.45 | 1.1 | 0.90 | 2.706 ± 0.174 µmol/g | 2.423 ± 0.543 µmol/g | – | – | – | COc1ccc(-c2cc(=O)c3c(OC)c(OC)c(OC)c(OC)c3o2)cc1 [Compound 2, Tangertin] | 97.5 ± 3.53 | –
3 | – | 16.4 ± 1.2 | 18.1 ± 1.62 | – | – | 1.038 ± 0.212 µmol/g | 1.586 ± 0.045 µmol/g | – | – | – | COc1c(O)cc(O)c2c(=O)cc(-c3ccccc3)oc12 [Compound 3, Wogonin] | 97.7 ± 8.39 | –
4 | 87.51 | 10.1 ± 7.33 | 21.4 ± 2.12 | 2.12 | 2.23 | 3.876 ± 0.741 µmol/g | 8.639 ± 1.275 ^b μmol/g | – | – | – | O=c1cc(-c2ccc(O)c(O)c2)oc2cc(O)cc(O)c12 [Compound 5, Luteolin] | 101 ± 4.19 | –
5 | – | 3.28 ± 0.32 | 2.81 ± 0.24 | – | – | 0.024 ± 0.002 µmol/g | 0.044 ± 0.007 µmol/g | 72.3 ± 18.8 | 61.8 ± 0.72 | < 0.26 | O=c1cc(-c2ccc(O)cc2)oc2c([C@@H]3OC[C@H](O)[C@H](O)[C@H]3O)c(O)c([C@@H]3O[C@H](CO)[C@@H](O)[C@H](O)[C@H]3O)c(O)c12 [Compound 8, Schaftoside] | 103 ± 4.77 | < 6
6 | – | 1.94 ± 0.41 | 1.75 ± 0.44 | – | – | 3.780 ± 0.711 µmol/g | 9.286 ± 0.859 ^b μmol/g | – | – | – | O=c1c(O)c(-c2ccccc2)oc2cc(O)cc(O)c12 [Compound 9, Galangin] | 106 ± 7.79 | –
7 | 52.10 | 2.55 ± 1.45 | 4.68 ± 0.41 | 1.84 | – | – | – | – | – | – | O=c1c(O)c(-c2ccc(O)c(O)c2)oc2cc(O)cc(O)c12 [Compound 10, Quercetin] | 102 ± 5.19 | –
8 | – | 8.23 ± 0.87 | 21.6 ± 0.32 | – | – | 0.129 ± 0.008 ^b μmol/g | 0.060 ± 0.011 µmol/g | 81.5 ± 6.7 | 90.1 ± 1.39 | – | O=c1c(O)c(-c2ccc(O)cc2O)oc2cc(O)cc(O)c12 [Compound 11, Morin] | 102 ± 3.62 | –
9 | – | 6.68 ± 0.93 | 5.92 ± 0.45 | – | – | 8.368 ± 1.039 µmol/g | 11.887 ± 1.247 ^a μmol/g | – | – | > 6 | O=c1c(O)c(-c2ccc(O)cc2)oc2cc(O)cc(O)c12 [Compound 12, Kaempferol] | 100 ± 4.53 | –

Row | Structure (SMILES) | Relative concentration of flavonoids, D-Hank's/methanol (%) [1] [%] | Papp A→B at 60 min, 40 μM [2] [×10⁻⁶ cm/s] | Papp B→A at 60 min, 40 μM [2] [×10⁻⁶ cm/s] | efflux ratio at 60 min, 40 μM [2] | Ratioc (ratio of CA B to A to CA A to B) (Caco-2 cell monolayer) | CA A to B (Caco-2 cell monolayer) | CA B to A (Caco-2 cell monolayer) | recovery [4, 5] [%] | recovery [4, 6] [%] | CA (Caco-2 cell monolayer) [µmol/g] | viability at 24 h, 40 μM [3] [%] | Papp at 1 h, 40 μM [2] [×10⁻⁶ cm/s]
10 | O=c1cc(-c2ccccc2)oc2cc(O)c(O)c(O)c12 [Compound 4, Baicalein] | – | 1.95 ± 0.53 | 0.71 ± 0.21 | – | – | 1.182 ± 0.341 µmol/g | 3.272 ± 0.445 ^a μmol/g | – | – | – | 96.7 ± 6.31 | < 2
